Data taken from patent US10814021B2, “Paramagnetic boron-doped graphene quantum dots and their application for safe magnetic resonance imaging” (priority 2017, dated 2020).
Entries after “also recorded” stand apart in the source; their conditions may differ.

Key:
[1] = In vitro MR imaging (T1/T2 relaxivity) of SL-BGQDs and Gd-DTPA in PBS at 14 T; format: physicochemical; conditions: SL-BGQDs per boron molar concentration
Experimental: To evaluate the applicability of using SL-BGQDs as contrast agents for MR imaging, quantitative T1 and T1-weighted MR imaging scan sequences were acquired of SL-BGQD samples in PBS at magnetic field strength of 14T. […] 1/T1 was then plotted against the boron molar concentration in SL-BGQDs (FIG. 13D).
T1- and T2-weighted imaging and quantitative T1 and T2 MR imaging scan sequences were used to investigate the contrast enhancing capabilities of SL-BGQDs. MR imaging was conducted on a Bruker Avance III 600 MHz, 14 T wide bore spectrometer. […] The vials were fixed in place inside a water reservoir; the water served as a homogeneous background signal to minimize magnetic susceptibility variations near samples. The secured vials were placed in a 25 mm single-channel ^1H radiofrequency receiving coil (PB Micro 2.5). […] Quantitative T2 values were measured using a multi-spin multi-echo (MSME) pulse sequence with TR=2500 ms, TE=6.7+6n ms (n=0-16), and 78×156 μm^2 in-plane resolution with 0.5 mm slice thickness for 14 slices. T1-weighted images were acquired with a RARE pulse sequence with TE=5.49 ms, TR=531 ms, 78×52 μm^2 in-plane resolution and 0.5 mm slice thickness for 10 slices. […] T1 values were determined within a circular, 100-voxel region of interest.

[2] = comparison values quoted in text; field not stated; cited from earlier work
C57BL/6 wild-type mice [3] = test: In vivo abdominal T1-weighted MR imaging, SL-BGQDs vs Gd-DTPA
From the text: T1-weighted MR images of the cross-sectional views of mice centered within the abdomen were acquired before and after contrast agent injection.
(§1) Mice were anesthetized with isoflurane (Piramal Healthcare) and secured in a coil-integrated respiratory monitoring system (SA Instruments; MR-compatible small animal monitoring and gating system) with nose-cone for oxygen/anesthetic, ear-bar head holder, circulating temperature control bath, and residual gas extraction. Abdominal scans were acquired using rapid acquisition with refocused echoes (RARE) T1-weighted (TR/TE=691/5.5 ms, in-plane resolution 93×62 μm^2, matrix 256×284) sequences and slices placed in the transverse plane with 0.5 mm slice thickness and 0.75 mm interslice gaps allowing for coverage from the liver to the pelvic floor. Cranial scans were acquired over the entire head with a 3-dimensional, T1-weighted fast low angle shot (FLASH) scan sequence (TR/TE=16.2/2.7 ms, resolution 106×108×152 μm^3, matrix 284×186×132). Images from this cranial scan sequence were processed using a maximum intensity projection with a 3 mm slab thickness.

C57BL/6 wild-type mice [4] = test: In vivo cranial T1-weighted MR imaging (neurovasculature), SL-BGQDs vs Gd-DTPA; conditions: 10 min after i.v. 200 μL, 5 mg mL^−1
From the text: as §1

**Q.** Which “longitudinal relaxivity, r1” value [1] does the source give for O=C([O-])CN(CCN(CC(=O)[O-])CC(=O)O)CCN(CC(=O)[O-])CC(=O)O.[Gd+3] [Gd-DTPA, gadolinium diethylene penta-acetic acid] here?
**A.** 4.3 mM⁻¹ s⁻¹

**Q.** What about the “r1 relaxivity of comparison T1 CAs” value [2] of the same compound?
**A.** 5.39 mM⁻¹ s⁻¹

**Q.** What about the “T1-weighted contrast enhancement in any organ at 60 min post-injection” value (C57BL/6 wild-type mice [3]; 60 min post-injection, i.v. 200 μL, 1 mg mL^−1) of the same compound?
**A.** completely nullified; also recorded: no T1-weighted signal increase was detected

**Q.** And the “time of peak contrast enhancement post-injection” value (C57BL/6 wild-type mice [3]; i.v. 200 μL, 1 mg mL^−1)?
**A.** ≤ 10 min

**Q.** And the “signal enhancement in renal cortex, renal pelvis and gall bladder, post- vs pre-injection” value (C57BL/6 wild-type mice [3]; i.v. 200 μL, 1 mg mL^−1, 14 T)?
**A.** substantial signal enhancement

**Q.** What about the imaging time (C57BL/6 wild-type mice [3]; summary statement) of the same compound?
**A.** about 10 min

**Q.** What about the “contrast of cranial vasculature, post- vs pre-injection” value (C57BL/6 wild-type mice [4]) of the same compound?
**A.** no apparent change in contrast
